Experimental data published in patent publication US20260026499A1 (priority 2022, published 2026).
Values after ≈ are worked out from the molar mass of the structure shown.

Tested on: tebuconazole-resistant Fusarium graminearum (TR)
Experiment: microbe, parasite or virus in culture
Assay type: cell-based
Details: for EC50: Fusarium graminearum, 72 h; for ATI: ZJS178 as standard reagent, TR strain

SMILES	EC50 [µg/mL]	ATI
CC(C)(C)C(O)(CCc1ccc(Cl)cc1)Cn1cncn1 (racemic) [Tebuconazole (B), (RS)-1-p-chlorophenyl-4,4-dimethyl-3-(1H-1,2,4-triazol-1-ylmethyl)pentan-3-ol, reference compound]	1.52 (≈ 4.95 µM)	2.34
CCOC(=O)/C(C#N)=C(\N)c1ccc(N(C)CC)cc1 [ZJS178 (A), ethyl 2-cyano-3-amino-3-[4-(N-ethyl-N-methylamino)phenyl]acrylate]	0.0356 (≈ 0.13 µM)	100.00
